Columns and labels:
Type in all cases: cell-based
WT-MCF7 cells [1] = assay: Cell viability (CellTiter Fluor), combination of Compound I with abemaciclib, WT-MCF7; settings: 7 days, average of CI at ED50, 75, 90 (Chou-Talalay)
Method: (§1) MCF7, Palbo-R-MCF7, ZR-75-1, Abema-R MCF7, and Palbo-R ZR-75-1 cells were plated at a density of 7,500 cells per well in 96 well flat bottom plates in 1640-RPMI media containing 10% FBS and penicillin/streptomycin and incubated for 24 hours at 37° C., 5% CO2. Media was replaced with 1640-RPM I containing 10% FBS with constant ratios of either Compound I or abemaciclib as single agents, or a combination of both drugs at four different concentrations (2× IC50, 1× IC50, 0.5× IC50, 0.25× IC50), and incubated at 37° C., 5% CO2 for 7 days. The cells were retreated as described above on the 3rd or 4th day. Triplicate wells were used for each concentration and wells containing only media with 0.1% DMSO were used as a control. […] Fluorescence at 380-400 nm Excitation/505 nm Emission was read in a fluorometer and the percentage of cell titer relative to DMSO-treated cells was calculated after correcting for background by subtracting the blank well's signal. IC50 values for single agents were calculated using the GraphPad Prism software. Quantification of synergy was done by calculating combination indices (CI) using the CalcuSyn software (Biosoft) based on the Chou-Talalay algorithm (Chou and Talalay, 1984), and averaging the CI values for the effective doses (ED) 50, 75, and 90.

Palbo-R-MCF7 cells = assay: Cell viability (CellTiter Fluor), combination of Compound I with abemaciclib, Palbo-R-MCF7; settings: 7 days, average of CI at ED50, 75, 90 (Chou-Talalay)
Method: as §1

ZR-75-1 cells = assay: Cell viability (CellTiter Fluor), combination of Compound I with abemaciclib, ZR-75-1; settings: 7 days, average of CI at ED50, 75, 90 (Chou-Talalay)
Method: as §1

Palbo-R ZR-75-1 cells = assay: Cell viability (CellTiter Fluor), combination of Compound I with abemaciclib, Palbo-R ZR-75-1; settings: 7 days, average of CI at ED50, 75, 90 (Chou-Talalay)
Method: as §1

Abema-R MCF7 cells = assay: Cell viability (CellTiter Fluor), combination of Compound I with abemaciclib, Abema-R MCF7; settings: 7 days, average of CI at ED50, 75, 90 (Chou-Talalay)
Method: as §1

WT-MCF7 cells [2] = assay: Cell viability (CellTiter Fluor), combination of Compound I with fulvestrant, MCF7; settings: 7 days
Method: MCF7 cells were plated at a density of 7,500 cells per well in 96 well flat bottom plates in phenol-red free 1640-RPMI media containing 10% charcoal-stripped FBS and penicillin/streptomycin and incubated for 24 hours at 37° C., 5% CO2. Media was replaced with phenol-red free 1640-RPM I media containing 10% charcoal-stripped FBS and penicillin/streptomycin treated with constant ratios of either Compound I or fulvestrant as single agents, or a combination of both drugs at four different concentrations (2× IC50, 1× IC50, 0.5× IC50, 0.25× IC50), and incubated at 37° C., 5% CO2 for 7 days. The cells were retreated as described above on the 3rd or 4th day. Triplicate wells were used for each concentration and wells containing only media with 0.1% DMSO were used as a control. […] Fluorescence at 380-400 nm Excitation/505 nm Emission was read in a fluorometer and the percentage of cell titer relative to DMSO-treated cells was calculated after correcting for background by subtracting the blank well's signal. IC50 values for single agents were calculated using the GraphPad Prism software. Quantification of synergy was done by calculating combination indices (CI) using the CalcuSyn software (Biosoft) based on the Chou-Talalay algorithm (Chou and Talalay, 1984), and averaging the CI values for the effective doses (ED) 50, 75, and 90.

[3] = tested on: MCF7, Palbo-R-MCF7, ZR-75-1, Abema-R MCF7, and Palbo-R ZR-75-1 cells; assay: Cell viability (CellTiter Fluor), combination of Compound I with abemaciclib, ER+ breast cancer cell line panel; settings: 7 days
Method: as §1

Structure (SMILES): CNc1nc2ncc(-c3c(C)noc3C)cc2n1Cc1ccccc1 [Compound I, 1-benzyl-6-(3,5-dimethylisoxazol-4-yl)-N-methyl-1H-imidazo[4,5-b]pyridine-2-amine]
- CI (combination index) (WT-MCF7 cells [1]): 0.08
- CI (combination index) (Palbo-R-MCF7 cells): 0.20
- CI (combination index) (ZR-75-1 cells): 0.14
- CI (combination index) (Palbo-R ZR-75-1 cells): 0.35
- CI (combination index) (Abema-R MCF7 cells): 0.30
- inhibition of cell viability, combination versus single agents (WT-MCF7 cells [2]; addition of Compound I to fulvestrant): improved inhibition of cell viability compared to either single agent
- CI (combination index) (WT-MCF7 cells [2]; combination with fulvestrant, charcoal-stripped FBS, phenol-red free media, average of CI at ED50, 75, 90 (Chou-Talalay)): 0.51
- inhibition of cell viability, combination versus single agents ([3]; addition of Compound I to abemaciclib, five cell lines): improved inhibition of cell viability compared to either single agent
- average CI value ([3]; combination with abemaciclib, depending upon the cell line (five cell lines)): 0.08-0.35

Source: patent US20220047563A1, “COMBINATION THERAPY FOR THE TREATMENT OF ESTROGEN-RECEPTOR POSITIVE BREAST CANCER” (ZENITH EPIGENETICS LTD., priority 2018, published 2022)
